Data from patent US20070155882A1, “Curable liquid composition, cured film, and antistatic laminate” (priority 2003, published 2007).

Test: Solubility of compound (B) in solvent (solid content of saturated solution)
Assay type: physicochemical
Experimental: Specifically, whether a specific solvent is the component (C) or the component (D) is determined depending on the type of the component (B). […] In more detail, the solubility is determined by measuring the solid content of the component (B) in a solution consisting of the component (B) and the solvent.
The supernatant liquid of the resulting mixture was dried on a hot plate at 120° C. for one hour and weighed to calculate the solid content.

[1] = solvent: IPA (isopropyl alcohol)

solubility in solvent (solvent: EtOH (ethanol))	solubility in solvent [1]	solubility in solvent (solvent: MeOH (methanol))	solubility in solvent (solvent: water) [wt %]	Compound
1.8 wt %	7.1 wt %	49 wt %	1.2	C=CC(=O)OCCn1c(=O)n(CCOC(=O)C=C)c(=O)n(CCOC(=O)C=C)c1=O [Example B-3, Tris(2-hydroxyethyl)isocyanurate triacrylate]
≧50 wt %	≧50 wt %	≧50 wt %	<0.1	Tricyclodecanediyldimethanol diacrylate [Example B-2]
–	≧50 wt %	≧50 wt %	–	C=CC(=O)OCC(COCC(COC(=O)C=C)(COC(=O)C=C)COC(=O)C=C)(COC(=O)C=C)COC(=O)C=C [Example B-1, Dipentaerythritol hexaacrylate]
